Key:
Akt2 = Akt2 (Homo sapiens, UniProt P31751); details: known from literature (Barnett 2005, Lindsley 2005, Zhao 2005); cited from earlier work
Akt1 = Akt1 (Homo sapiens, UniProt P31749); details: known from literature (Barnett 2005, Lindsley 2005, Zhao 2005); cited from earlier work
Akt3 = Akt3 (Homo sapiens, UniProt Q9Y243); details: known from literature (Barnett 2005, Lindsley 2005, Zhao 2005); cited from earlier work
PANC-1 cells [1] = assay: Cell proliferation (cell counting) after siRNA knockdown in PANC-1 cells; format: cell-based; details: 10 to 50 nM siRNA tested, cell number 4 days after transfection, FIG. 1
Method: (§1) 1×10^6 PANC-1 cells were plated on a 10 cm dish, and culturing was carried out in Roswell Park Memorial Institute 1640 (RPMI 1640, Sigma), to which 10% fetal bovine serum (Fetal bovine serum, FBS) and 5% L-glutamine were added, for 18 hours. Culturing conditions were 37° C. and 5% CO2 unless otherwise specified. Furthermore, 1×10^6 A549 cells were plated on a 10 cm dish, and culturing was carried out in Dulbecco's modified Eagle's medium (DMEM, Sigma), to which 10% FBS and 10% L-glutamine were added, for 18 hours. […]
(§2) In order to optimize the concentration of siRNA, a final concentration of 10 to 50 nM of GST-π siRNA or Akt siRNA was added to a dish containing PANC-1 cells or A549 cells flushed with 10 mL of PTI-MEM, culturing was carried out at room temperature for 5 hours, the medium was replaced (RPMI 1640 containing 5% FBS for PANC-1 cells and DMEM containing 10% FBS for A549 cells), and culturing was carried out for 2 hours. […] Subsequently, every 24 hours, the cells were detached by treatment with trypsin and harvested from the dish, and the number of cells was counted.
(§3) In order to test the effect when GST-π siRNA and Akt siRNA are made to act at the same time, a Lipofectamine/siRNA mixed solution in which GST-π siRNA and Akt siRNA were mixed was added to each of the cells in the same way as above, and the number of cells was counted. […]

A549 cells = assay: Cell proliferation (cell counting) after siRNA knockdown in A549 cells; format: cell-based; details: 10 to 50 nM siRNA tested, cell number 4 days after transfection, FIG. 2
Method: as §1, §2, §3

PANC-1 cells [2] = assay: Cell morphology / dead cells after siRNA knockdown in PANC-1 cells; format: cell-based; details: double knockdown compared with single
Method: 1×10^6 PANC-1 cells were plated on a 10 cm dish, and culturing was carried out in Roswell Park Memorial Institute 1640 (RPMI 1640, Sigma), to which 10% fetal bovine serum (Fetal bovine serum, FBS) and 5% L-glutamine were added, for 18 hours. Culturing conditions were 37° C. and 5% CO2 unless otherwise specified. Furthermore, 1×10^6 A549 cells were plated on a 10 cm dish, and culturing was carried out in Dulbecco's modified Eagle's medium (DMEM, Sigma), to which 10% FBS and 10% L-glutamine were added, for 18 hours. The respective media were replaced, and 2 hours later 20% to 30% confluent PANC-1 or A549 cells were transfected with GST-π siRNA and/or Akt siRNA using Lipofectamine RNAiMAX (Life Technologies).
A Lipofectamine/siRNA mixed solution for transfection was prepared as follows. First, 35 μL of Lipofectamine RNAiMAX and 965 μL of OPTI-MEM (Sigma) were mixed to thus prepare a Lipofectamine solution. […]
as §3

PANC-1 cells [3] = assay: Autophagy by western blot of LC3 type I/type II shift in PANC-1 cells; format: cell-based; details: each siRNA 10 nM, 3 days culture, FIG. 6
Method: 1×10^6 PANC-1 cells were plated on a 10 cm dish, and culturing was carried out in RPMI 1640, to which 10% FBS and 5% L-glutamine were added, for 24 hours. […] The cells on the dish were washed with ice-cooled PBS, and an ice-cooled Lysis buffer was then added to thus break the cells. The Lysis buffer was prepared by mixing 100 μL of NP-40 Alternative, PROTEIN GRADE® Detergent, 10% Solution, Sterile-Filtered (CALBIOCHEM), 500 μL of 1 M Tris-HCl (pH 7.5), 300 μL of 5 M NaCl, 20 μL of 0.5 M EDTA, and […] of sterile water. The cell lysate was collected using a cell scraper and ice-cooled for 30 minutes. During this process, inversion mixing was carried out every 10 minutes. The solution thus obtained was subjected to centrifugation at 15000 rpm and 4° C. for 15 minutes, and the supernatant was collected, thus giving a cell extract. This cell extract was subjected to western blot analysis. A reaction with a transfer membrane was carried out at 4° C. for 16 hours using anti-LC3B antibody (SIGMA) as a primary antibody. Detection of LC3 molecules was carried out using a chemiluminescent reagent after a reaction with HRP-labeled secondary antibody. Whether or not autophagy was induced was evaluated by a shift to LC3 type I (18 kDa) and type II (16 kDa).

Akt1, sequence (P31749 whole entry): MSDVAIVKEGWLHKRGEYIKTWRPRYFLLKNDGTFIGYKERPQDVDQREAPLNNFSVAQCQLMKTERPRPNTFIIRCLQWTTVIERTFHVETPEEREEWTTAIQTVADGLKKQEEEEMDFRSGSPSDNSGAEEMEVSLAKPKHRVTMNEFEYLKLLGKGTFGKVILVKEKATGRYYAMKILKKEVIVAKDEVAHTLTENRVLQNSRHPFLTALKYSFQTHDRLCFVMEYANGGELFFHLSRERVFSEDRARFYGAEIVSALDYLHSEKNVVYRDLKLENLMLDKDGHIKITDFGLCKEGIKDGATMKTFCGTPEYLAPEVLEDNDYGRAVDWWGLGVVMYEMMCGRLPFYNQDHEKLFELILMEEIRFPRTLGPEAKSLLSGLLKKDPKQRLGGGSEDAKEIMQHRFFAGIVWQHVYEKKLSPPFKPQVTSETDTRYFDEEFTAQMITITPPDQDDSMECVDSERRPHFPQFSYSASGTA
Akt3, sequence (Q9Y243 whole entry, species assumed): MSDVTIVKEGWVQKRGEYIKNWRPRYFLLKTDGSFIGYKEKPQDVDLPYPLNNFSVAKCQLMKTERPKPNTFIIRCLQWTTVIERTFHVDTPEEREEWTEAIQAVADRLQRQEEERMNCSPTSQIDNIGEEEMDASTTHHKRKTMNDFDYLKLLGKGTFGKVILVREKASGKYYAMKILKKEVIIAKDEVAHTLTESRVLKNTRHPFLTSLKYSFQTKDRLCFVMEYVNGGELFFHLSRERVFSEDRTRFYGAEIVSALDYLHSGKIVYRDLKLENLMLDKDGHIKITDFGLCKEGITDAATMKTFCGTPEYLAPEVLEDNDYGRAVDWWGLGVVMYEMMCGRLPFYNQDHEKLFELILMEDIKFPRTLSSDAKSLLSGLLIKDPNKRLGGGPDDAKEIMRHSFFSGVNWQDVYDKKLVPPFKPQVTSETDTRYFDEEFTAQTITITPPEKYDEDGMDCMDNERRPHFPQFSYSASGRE
Akt2, sequence (P31751 whole entry, species assumed): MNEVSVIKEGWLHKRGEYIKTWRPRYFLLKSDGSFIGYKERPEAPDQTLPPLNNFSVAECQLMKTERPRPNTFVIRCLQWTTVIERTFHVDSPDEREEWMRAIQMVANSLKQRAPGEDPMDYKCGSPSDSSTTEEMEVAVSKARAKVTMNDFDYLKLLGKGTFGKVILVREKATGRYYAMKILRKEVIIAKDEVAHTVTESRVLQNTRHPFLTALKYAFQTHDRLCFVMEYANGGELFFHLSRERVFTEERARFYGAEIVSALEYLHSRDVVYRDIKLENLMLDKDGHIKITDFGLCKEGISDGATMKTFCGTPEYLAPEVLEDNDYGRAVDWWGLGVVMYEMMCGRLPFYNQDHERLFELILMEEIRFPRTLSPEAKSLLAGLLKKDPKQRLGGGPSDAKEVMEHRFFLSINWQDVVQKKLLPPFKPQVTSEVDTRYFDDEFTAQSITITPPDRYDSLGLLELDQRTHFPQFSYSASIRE

Row | Compound | effect on activation and phosphorylation of Akt2 (Akt2) | effect on activation and phosphorylation of Akt1 (Akt1) | inhibition of Akt3 (Akt3) | final concentration at which the cell proliferation inhibition effect almost reaches a plateau (PANC-1 cells [1]) [nM] | final concentration at which the cell proliferation inhibition effect almost reaches a plateau (A549 cells) [nM] | dead cells (floating cells) (PANC-1 cells [2]) | autophagy (shift of LC3 type I to type II) (PANC-1 cells [3])
1 | O=c1[nH]c2ccccc2n1C1CCN(Cc2ccc(-c3nc4cc5[nH]cnc5cc4nc3-c3ccccc3)cc2)CC1 [Akt Inhibitor VIII, 1,3-Dihydro-1-(1-((4-(6-phenyl-1H-imidazo[4,5-g]quinoxalin-7-yl)phenyl)methyl)-4-piperidinyl)-2H-benzimidazol-2-one] | selectively blocks activation and phosphorylation | selectively blocks activation and phosphorylation | does not inhibit |  |  |  | 
2 | GST-π siRNA: siRNA against GST-π; sense GGGAGGCAAGACCUUCAUUtt (SEQ ID No: 1), antisense AAUGAAGGUCUUGCCUCCCtg (SEQ ID No: 2) (sense GGGAGGCAAGACCUUCAUUTT; antisense AAUGAAGGUCUUGCCUCCCTG; chemistry not given here) |  |  |  | ~30 | ~30 | a large number of floating cells (dead cells) | autophagy induced
